Data from patent US11352320B2 (Merck Sharp & Dohme Corp., priority 2018, dated 2022).
Structures can show the parent of a compound that is named as a salt.

Tests used:
IDO1 [1] = target: T1, IDO1 (Homo sapiens, UniProt P14902); assay: IDO1 Cellular Assay in Hela Cells Stimulated with IFNγ; format: cell-based; parameters: endogenous in cells; host or cells: HeLa cells stimulated with IFNγ; settings: IFNγ 100 ng/mL, 300 uM L-tryptophan, about 48 hours, fluorescence readout, read-out: IDO1 HELA Cell Assay, IC50
T1 sequence (P14902 whole entry): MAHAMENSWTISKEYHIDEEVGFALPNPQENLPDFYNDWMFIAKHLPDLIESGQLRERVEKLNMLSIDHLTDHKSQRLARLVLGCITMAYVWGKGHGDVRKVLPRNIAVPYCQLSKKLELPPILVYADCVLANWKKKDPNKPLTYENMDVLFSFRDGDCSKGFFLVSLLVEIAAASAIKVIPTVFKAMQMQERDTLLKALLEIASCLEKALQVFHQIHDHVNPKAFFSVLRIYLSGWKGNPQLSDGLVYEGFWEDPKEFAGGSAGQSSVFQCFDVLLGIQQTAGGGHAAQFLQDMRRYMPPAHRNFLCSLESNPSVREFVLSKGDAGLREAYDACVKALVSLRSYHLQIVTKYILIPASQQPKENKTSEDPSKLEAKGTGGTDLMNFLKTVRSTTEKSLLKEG
Protocol: Biological Assays IDO1 Cellular Assay in Hela Cells Stimulated with IFNγ
Hela cells were cultured in complete Hela culture medium (90% EMEM, 10% heat-inactivated fetal bovine serum) and expanded to about 1×10^9 cells. The cells were then collected and frozen down at 1×10^7 cells/vial in 1 mL frozen medium (90% complete Hela culture medium, 10% DMSO)
Compounds to be tested were serially diluted in ten 3-fold steps in DMSO starting from 10 mM DMSO stocks in Echo low volume plate(s). Compound dilutions or DMSO alone were then dispensed from the dilution plate(s) into Greiner black 384-well assay plate(s) (catalog #781086, 50 nL/well) using an Echo 550 acoustic liquid handler (Labcyte).
Frozen Hela cells were thawed and transferred into Hela assay medium (99% complete Hela culture medium, 1% Pen/Strep) with 20 mL medium/vial of cells. The cells were spun down at 250 g in a table top centrifuge for 5 min and suspended in same volume of Hela assay medium. The cells were then counted and adjusted to a density of 2×10^5 cells/ml in Hela assay medium. Sterile L-tryptophan were added to the cells with final concentration of 300 uM L-tryptophan. A small aliquot (2 mL/plate) of Hela cells were set aside and were not treated with IFNγ, to serve as the Max-E control. The rest of Hela cells were added with sterile IFNγ (Cat #285-IF, R & D systems) with a final concentration of 100 ng/mL.
Hela cells with and without IFNγ were dispensed to the respective wells of 384-well assay plates containing the compounds. The plates were incubated for about 48 hours at a 37° C., 5% CO2 incubator. Afterwards, 12 μL of 0.5 M methyl isonipecotate in dimethyl sulfoxide were added into each well and the plates were sealed and incubated at 37° C. without CO2 overnight. The plates were centrifuged for 1 min at 200×g. The resulting fluorescence was measured in a Spectramax plate reader (Molecular Devices) with a 400 nm excitation filter and a 510 nm emission filter.
The fluorescence intensity of each well was corrected for the background observed in wells with non-IFNγ-treated cells and was expressed as a fraction of the intensity observed in wells of IFNγ-treated cells and DMSO only. Potencies were calculated by linear least squares fit to the four parameter logistic IC50 equation.
Compounds disclosed herein generally have IC50 of about 1 nM to about 1,000 nM, or more specifically, about 2 nM to about 800 nM, or more specifically, about 5 nM to about 600 nM, or still more specifically, about 10 nM to about 500 nM. Such a result is indicative of the intrinsic activity of the compounds in use as an inhibitor of an IDO enzyme.

IDO1 [2] = target: T1, IDO1; assay: IDO1 Human Whole Blood Assay; format: cell-based; settings: LPS and IFNγ 100 ng/mL, 18 h, kynurenine by LC/MS/MS
Protocol: IDO1 Human Whole Blood Assay
Compounds to be tested were serially diluted in ten 3-fold steps in DMSO starting from 10 mM. 3 μL of compound dilutions or DMSO alone were then dispensed from the dilution plate into a polypropylene 96-well assay plate containing 97 μL of RPMI medium using an Echo 555 acoustic liquid handler (Labcyte). LPS and IFNγ was prepared in RPMI medium to a 10× of final conc. (1000 ng/mL), final concentration is 100 ng/mL.
Two hundred forty μL of blood was transferred to each of the wells of a v-bottom 96 well plate. Thirty μL of compound was transferred from intermediate dilution plate, and incubated for 15 min. Thirty μL from stimulants was then transferred to blood and mixed thoroughly. Plate was covered with breathable membrane and incubated at 37° C. for overnight (18 h).
On day 2 isotope labeled standard of kynurenine and tryptophan was made in water at 10× concentration and 30 μL was added to the blood at 3 μM final concentration. The assay plates were centrifuged at 300×G for 10 min with no brake to separate plasma from red blood cells. Sixty μL of plasma samples was removed without disturbing red blood cells. Plasma was diluted with RPMI in 1:1 ratio and proteins were precipitated out with two volume of acetonitrile. The plates were centrifuged at 4000×G for 60 min. Twenty μL of supernatant was carefully transferred to a 384 well plate containing 40 μL of 0.1% formic acid in water and analyzed by LC/MS/MS.
LC/MS/MS analyses were performed using Thermo Fisher's LX4-TSQ Quantum Ultra system. This system consists of four Agilent binary high-performance liquid chromatography (HPLC) pumps and a TSQ Quantum Ultra triple quadruple MS/MS instrument. For each sample, 5 μL were injected onto an Atlantis T3 column (2.1 mm×150 mm, 3 μm particle size) from Waters. The mobile phase gradient pumped at 0.8 mL/min was used to elute the analytes from the column at 25° C. […] Compounds were titrated and IC50's were calculated by 4 parameter sigmoidal curve fitting formula. […]

Row | IC50 (IDO1 [1]) | IC50 (IDO1 [2]) | Compound
1 | 3.23 nM | 378 nM | CC(C(=O)Nc1ccc(F)cc1)C12CC(Nc3ncnc4ccc(F)cc34)(C1)C2 (single isomer, unassigned) [Example 11, N-(4-fluorophenyl)-2-(3-((6-fluoroquinazolin-4-yl)amino)bicyclo[1.1.1]pentan-1-yl)propanamide]
2 | 5.38 nM | 543 nM | CC(C(=O)Nc1ccc(F)cc1)C12CC(Nc3ncnc4ccccc34)(C1)C2 (single isomer, unassigned) [Example 5, N-(4-fluorophenyl)-2-(3-(quinazolin-4-ylamino)bicyclo[1.1.1]pentan-1-yl)propanamide]
3 | 25.7 nM |  | C[C@H](C(=O)Nc1ccc(F)cc1)C12CC(NCc3cccc(Cl)c3)(C1)C2 [Example 28, (S)-2-(3-((3-chlorobenzyl)amino)bicyclo[1.1.1]pentan-1-yl)-N-(4-fluorophenyl)propanamide, TFA]
4 | 5.6 nM | 625 nM | C[C@H](C(=O)Nc1ccc(F)cc1)C12CC(N(C)Cc3cccc(Cl)c3)(C1)C2 [Example 29, (S)-2-(3-((3-chlorobenzyl)(methyl)amino)bicyclo[1.1.1]pentan-1-yl)-N-(4-fluorophenyl)propanamide, TFA]
